Experimental data published in ChEMBL document CHEMBL1157187, “Chemical synthesis of 2beta-amino-5alpha-androstane-3alpha,17beta-diol N-derivatives and their antiproliferative effect on HL-60 human leukemia cells” (Bioorg Med Chem, 2008).
pIC50: −log10 of the molar value.

Columns and labels:
[1] = system: HL-60; experiment: Growth inhibition of human HL60 cells at 1 uM after 3 days; format: functional; conditions: HL-60, 72 h
[2] = system: HL-60; experiment: Growth inhibition of human HL60 cells at 10 uM after 3 days; format: functional; conditions: HL-60, 72 h
[3] = system: HL-60; experiment: Growth inhibition of human HL60 cells after 3 days; format: functional, cell-based; conditions: HL-60, 72 h
[4] = system: HL-60; experiment: Increase in CD11b/CD14 double expression in human HL60 cells; format: functional
[5] = system: HL-60; experiment: Increase in CD11b expression in human HL60 cells; format: functional

Row | SMILES | inhibition at 1 µM [1] | inhibition at 10 µM [2] | pIC50 [3] | Activity [4] | Activity [5]
1 | CCCCCCCCCN1CCN([C@H]2C[C@@]3(C)[C@@H](CC[C@@H]4[C@@H]3CC[C@]3(C)[C@@H](O)CC[C@@H]43)C[C@@H]2O)CC1 | 9.1% | 99.8% | 5.38 | 32% | 55%
2 | C[C@]12C[C@H](NCCC(c3ccccc3)c3ccccc3)[C@@H](O)C[C@@H]1CC[C@@H]1[C@@H]2CC[C@]2(C)[C@@H](O)CC[C@@H]12 | 12.9% | 95.2% | 5.51 | 39% | 58%
3 | CCCCCCCCN[C@H]1C[C@@]2(C)[C@@H](CC[C@@H]3[C@@H]2CC[C@]2(C)[C@@H](O)CC[C@@H]32)C[C@@H]1O | 0% | 99.2% | 5.19 | 10% | 29%
4 | COc1cccc2c1C(=O)c1c(O)c3c(c(O)c1C2=O)C[C@@](O)(C(=O)CO)C[C@@H]3O[C@H]1C[C@H](N)[C@H](O)[C@H](C)O1 [DOXORUBICIN] | 91.8% | 94.6% | 7.00 | – | –
5 | C[C@]12C[C@H](NCCc3ccccc3)[C@@H](O)C[C@@H]1CC[C@@H]1[C@@H]2CC[C@]2(C)[C@@H](O)CC[C@@H]12 | 9.5% | 42.8% | – | – | –
6 | CCCCCCN[C@H]1C[C@@]2(C)[C@@H](CC[C@@H]3[C@@H]2CC[C@]2(C)[C@@H](O)CC[C@@H]32)C[C@@H]1O | 0% | 6.9% | – | – | –
7 | C[C@]12C[C@H](N3CCCCCC3)[C@@H](O)C[C@@H]1CC[C@@H]1[C@@H]2CC[C@]2(C)[C@@H](O)CC[C@@H]12 | 0% | 3.4% | – | – | –
8 | CC(C)C(=O)N1CCN([C@H]2C[C@@]3(C)[C@@H](CC[C@@H]4[C@@H]3CC[C@]3(C)[C@@H](O)CC[C@@H]43)C[C@@H]2O)CC1 | 0% | 1.1% | – | – | –
9 | CCCCOCCCN[C@H]1C[C@@]2(C)[C@@H](CC[C@@H]3[C@@H]2CC[C@]2(C)[C@@H](O)CC[C@@H]32)C[C@@H]1O | 4.8% | 26.5% | – | – | –
10 | CCCCCN1CCN([C@H]2C[C@@]3(C)[C@@H](CC[C@@H]4[C@@H]3CC[C@]3(C)[C@@H](O)CC[C@@H]43)C[C@@H]2O)CC1 | 0% | 7.7% | – | – | –
11 | C[C@]12C[C@H](N3CCNCC3)[C@@H](O)C[C@@H]1CC[C@@H]1[C@@H]2CC[C@]2(C)[C@@H](O)CC[C@@H]12 | 6.9% | 5.9% | – | – | –
12 | CN1CCN([C@H]2C[C@@]3(C)[C@@H](CC[C@@H]4[C@@H]3CC[C@]3(C)[C@@H](O)CC[C@@H]43)C[C@@H]2O)CC1 | 0% | 16.2% | – | – | –
13 | C[C@]12C[C@H](NC3CCCCCC3)[C@@H](O)C[C@@H]1CC[C@@H]1[C@@H]2CC[C@]2(C)[C@@H](O)CC[C@@H]12 | 0% | 0% | – | – | –
14 | CCCCC(=O)N1CCN([C@H]2C[C@@]3(C)[C@@H](CC[C@@H]4[C@@H]3CC[C@]3(C)[C@@H](O)CC[C@@H]43)C[C@@H]2O)CC1 | 0% | 7.4% | – | – | –
15 | CC(C)CN[C@H]1C[C@@]2(C)[C@@H](CC[C@@H]3[C@@H]2CC[C@]2(C)[C@@H](O)CC[C@@H]32)C[C@@H]1O | 0% | 0% | – | – | –
16 | CCCCCCCCCN(CCCCCCCCC)[C@H]1C[C@@]2(C)[C@@H](CC[C@@H]3[C@@H]2CC[C@]2(C)[C@@H](O)CC[C@@H]32)C[C@@H]1O | 9.8% | 41.5% | – | – | –
17 | CCCCCCCCC(=O)N1CCN([C@H]2C[C@@]3(C)[C@@H](CC[C@@H]4[C@@H]3CC[C@]3(C)[C@@H](O)CC[C@@H]43)C[C@@H]2O)CC1 | 8.1% | 99% | – | – | –
18 | CCCCCCCCCN[C@H]1C[C@@]2(C)[C@@H](CC[C@@H]3[C@@H]2CC[C@]2(C)[C@@H](O)CC[C@@H]32)C[C@@H]1O | 3.9% | 89.9% | – | – | –
19 | CCCC(=O)N1CCN([C@H]2C[C@@]3(C)[C@@H](CC[C@@H]4[C@@H]3CC[C@]3(C)[C@@H](O)CC[C@@H]43)C[C@@H]2O)CC1 | 0% | 4.6% | – | – | –
